Legend:
mice [1] = test: Dish test; type: in vivo; details: Mus musculus, ip, intraperitoneal, remaining in the dish for more than 3 minutes, read-out: ED50, Dish test (D)
Experimental: (§1) Sedative effects of 8-chloro-1-(hydroxymethyl)-6-phenyl-4H-s-triazolo[4,3-a][1,4]benzodiazepine (A) are shown by the following tests in mice:
Dish test: Mice in Petri dishes (10 cm. diameter, 5 cm. higher, partially embedded in wood shavings), climb out in a very short itme, when not treated. Mice remaining in the dish for more than 3 minutes indicates tranquilization. The ED50 equals the dose of test compound at which 50% of the mice remain in the dish. The ED50 (intraperitoneal administration) in this test was 2.0 mg./kg.

mice [2] = test: Pedestal test; type: in vivo; details: Mus musculus, ip, intraperitoneal, stay on the pedestal for more than 1 minute, read-out: ED50, Pedestal test (P)
Experimental: as §1
Pedestal test: The untreated mouse leaves the pedestal in less than a minute to climb back to the floor of the standard mouse box. Tranquilized mice will stay on the pedestal for more than 1 minute.

[3] = LD50 (lethal dose) in mice; details: mouse, in vivo
mice [4] = test: Chimney test; type: in vivo; details: Mus musculus, ip, intraperitoneal, failure to back up and out of vertical glass cylinder within 30 seconds, read-out: ED50, Chimney test (Ch)
Excerpt: as §1
The test determines the ability of mice to back up and out of a vertical glass cylinder within 30 seconds. At the effective dosage, 50% of the mice failed doing it.

mice [5] = test: Nicotine antagonism test; type: in vivo; details: Mus musculus, ip, intraperitoneal, nicotine salicylate 2 mg./kg. thirty minutes later
Experimental: as §1
Nicotine antagonism test: Mice in a group of 6 are injected with the test compound-8-chloro-1-(hydroxymethyl)-6phenyl-4H-s-triazolo[4,3-a][1,4]benzodiazepine. Thirty minutes later the mice including control (untreated) mice are injected with nicotine salicylate (2 mg./kg.). The control mice show overstimulation, i.e., (1) running convulsions followed by (2) tonic extensor fits; followed by (3) death. […] (ED50) was necessary.

[6] = read-out: ED50, Nicotine antagonism (3) test (Ni): protection of 50% of the mice against death

Compound | ED50 (mice [1]) [mg/kg] | ED50 (mice [2]) [mg/kg] | LD50 [3] [mg/kg] | ED50 (mice [4]) [mg/kg] | ED50 (mice [5]; read-out: ED50, Nicotine antagonism (2) test: dosage protecting 50% of the mice against tonic extensor fits) [mg/kg] | ED50 (mice [5]; [6]) [mg/kg]
OCc1nnc2n1-c1ccc(Cl)cc1C(c1ccccc1)=NC2 [A, 8-chloro-1-(hydroxymethyl)-6-phenyl-4H-s-triazolo[4,3-a][1,4]benzodiazepine] | 2 | 1.56 | > 100 | 0.63 | 0.08 | 0.1
CCOCc1nnc2n1-c1ccc(Cl)cc1C(c1ccccc1)=NC2 [B, 8-Chloro-1-(ethoxymethyl)-6-phenyl-4H-s-triazolo[4,3-a][1,4]benzodiazepine] | 1.6 | 1.4 | > 100 | 1 | – | 0.6
OCc1nnc2n1-c1ccc(Cl)cc1C(c1ccccc1Cl)=NC2 [C, 8-Chloro-1-(hydroxymethyl)-6-(o-chlorophenyl)-4H-s-triazolo[4,3-a][1,4]benzodiazepine] | 0.03 | 0.03 | > 100 | 0.04 | – | 0.032
O=C(O)CCC(=O)OCc1nnc2n1-c1ccc(Cl)cc1C(c1ccccc1Cl)=NC2 [D, Hydrogensuccinate ester of 8-chloro-1-(hydroxymethyl)-6-(o-chlorophenyl)-4H-s-triazolo[4,3-a][1,4]benzodiazepine] | 0.125 | 0.2 | > 25 | 0.125 | – | 0.09
